Experimental findings from ChEMBL document CHEMBL5104198, “Probing Factor Xa Protein-Ligand Interactions: Accurate Free Energy Calculations and Experimental Validations of Two Series of High-Affinity Ligands” (J Med Chem, 2022) are described below.

For orientation: inhibition means the share of the control response that was lost under treatment. What is called Ki is the dissociation constant of the complex between target and ligand, obtained from inhibition or displacement.

Molecules are shown by their SMILES.

In one test the target is T1, Coagulation factor X (Homo sapiens, UniProt P00742). Kind of test: Inhibition of human fXa at 100 uM using Cbz-D-Arg-Gly-L-Arg-pNA as substrate preincubated for 30 mins followed by substrate addition and measured after 60 mins by […] method relative to control. The conditions noted are these: time 90.0 min.
T1 sequence (P00742 41-179 limits assumed): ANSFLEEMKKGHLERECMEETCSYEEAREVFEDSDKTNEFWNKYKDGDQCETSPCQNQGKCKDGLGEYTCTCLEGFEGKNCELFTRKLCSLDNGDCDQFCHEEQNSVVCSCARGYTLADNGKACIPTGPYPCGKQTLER
T1 sequence (P00742 235-488 limits assumed): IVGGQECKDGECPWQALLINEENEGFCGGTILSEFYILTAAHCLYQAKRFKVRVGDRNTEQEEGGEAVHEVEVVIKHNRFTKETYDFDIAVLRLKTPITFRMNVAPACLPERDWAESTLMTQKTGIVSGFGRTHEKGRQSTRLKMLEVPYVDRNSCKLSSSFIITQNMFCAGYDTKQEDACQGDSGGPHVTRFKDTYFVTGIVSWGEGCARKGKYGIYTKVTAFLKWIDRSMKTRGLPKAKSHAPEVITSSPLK
The compound `CC(C)N1CCC(NC(=O)c2ccn(CC(=O)Nc3ccc(Cl)cc3)c2)CC1` yielded an inhibition of 66%.

In a further test the target is T1, Coagulation factor X. Put plainly: Inhibition of human fXa assessed as inhibition constant using Cbz-D-Arg-Gly-L-Arg-pNA as substrate preincubated for 30 mins followed by substrate addition and measured after 60 mins by […] method.
Conditions: not given
As to `CC(C)N1CCC(NC(=O)c2nc3ccccc3n2Cc2cc(-c3ccc(Cl)s3)on2)CC1`, the inhibitory constant (Ki) is 0.5 nM.
With `Cc1ccc(-c2cc(Cn3c(C(=O)NC4CCN(C(C)C)CC4)cc4ccccc43)no2)s1`, the Ki came to 55 nM.
With `CC(C)N1CCC(NC(=O)c2cc3ccccc3n2Cc2cc(-c3ccc(F)s3)on2)CC1`, the Ki came to 70 nM.
As to `CC(C)N1CCC(NC(=O)c2ccn(Cc3cc(-c4ccc(Cl)s4)on3)c2)CC1`, the inhibition constant Ki amounted to 1240 nM.
Regarding `CC(C)N1CCC(NC(=O)c2cc3ccccc3n2CC(=O)Nc2ccc(F)cc2)CC1`, the Ki was determined as 63 nM.
Regarding `CC(C)N1CCC(NC(=O)c2nc3ccccc3n2CC(=O)Nc2ccc(Cl)cc2)CC1`, the Ki stood at 6 nM.
On to `CC(C)N1CCC(NC(=O)c2ccn(CC(=O)Nc3ccc(Cl)cc3)n2)CC1`, for which the Ki was determined as 204 nM.
Take `CC(C)N1CCC(NC(=O)c2cn(Cc3cc(-c4ccc(Cl)s4)on3)c3ncccc23)CC1`: the Ki worked out at 65 nM.
As for `CC(C)N1CCC(NC(=O)c2cc3ccccc3n2CC(=O)Nc2ccc(I)cc2)CC1`, the inhibition constant Ki is 7 nM.
As to `CC(C)N1CCC(NC(=O)c2cc3ccccc3n2Cc2cc(-c3ccc(Br)s3)on2)CC1`, the inhibitory constant (Ki) turned out to be 12 nM.
The same measure, in the same setting: to `CC(C)N1CCC(NC(=O)c2cc3ccccc3n2Cc2cc(-c3ccc(I)s3)on2)CC1` belongs 188 nM; to `CC(C)N1CCC(NC(=O)c2cn(CC(=O)Nc3ccc(Cl)cc3)c3ncccc23)CC1`, 2930 nM.
On to `CC(C)N1CCC(NC(=O)c2cc3cccnc3n2Cc2cc(-c3ccc(Cl)s3)on2)CC1`, for which the Ki was determined as 4 nM.
For `CC(C)N1CCC(NC(=O)c2cc3ccccc3n2CC(=O)Nc2ccccc2)CC1`, the Ki was 204 nM.
Turning to `CC(C)N1CCC(NC(=O)c2c3ccccc3nn2Cc2cc(-c3ccc(Cl)s3)on2)CC1`, the Ki was 8 nM.
Regarding `Cc1ccc(NC(=O)Cn2c(C(=O)NC3CCN(C(C)C)CC3)cc3ccccc32)cc1`, the Ki came to 56 nM.
`CC(C)N1CCC(NC(=O)c2cc3cccnc3n2CC(=O)Nc2ccc(Cl)cc2)CC1`: the Ki turned out to be 11 nM.
On to `CC(C)N1CCC(NC(=O)c2ccn(Cc3cc(-c4ccc(Cl)s4)on3)n2)CC1`, for which the inhibition constant (Ki) worked out at 37 nM.
Take `C#Cc1ccc(NC(=O)Cn2c(C(=O)NC3CCN(C(C)C)CC3)cc3ccccc32)cc1`: the Ki amounted to 49 nM.
On to `CC(C)N1CCC(NC(=O)c2cccn2Cc2cc(-c3ccc(Cl)s3)on2)CC1`, for which the Ki came out at 57 nM.
On to `CC(C)N1CCC(NC(=O)c2cn(Cc3cc(-c4ccc(Cl)s4)on3)c3ccccc23)CC1`, for which the inhibitory constant (Ki) stood at 241 nM.
With `CC(C)N1CCC(NC(=O)c2cc3ccccc3n2Cc2cc(-c3cccs3)on2)CC1`, the inhibitory constant (Ki) was found to be 162 nM.
As to `CC(C)N1CCC(NC(=O)c2cn(Cc3cc(-c4ccc(Cl)s4)on3)cn2)CC1`, the inhibition constant (Ki) turned out to be 14800 nM.
With `C#Cc1ccc(-c2cc(Cn3c(C(=O)NC4CCN(C(C)C)CC4)cc4ccccc43)no2)s1`, the Ki was 13 nM.
Regarding `CC(C)N1CCC(NC(=O)c2cn(CC(=O)Nc3ccc(Cl)cc3)c3ccccc23)CC1`, the inhibitory constant (Ki) came out at 5120 nM.
On to `CC(C)N1CCC(NC(=O)c2nn(CC(=O)Nc3ccc(Cl)cc3)c3ccccc23)CC1`, for which the inhibition constant (Ki) is 1740 nM.
On to `CC(C)N1CCC(NC(=O)c2nn(Cc3cc(-c4ccc(Cl)s4)on3)c3ccccc23)CC1`, for which the inhibitory constant (Ki) was determined as 9 nM.
On the same count and under the same terms, in the case of `CC(C)N1CCC(NC(=O)c2ccnn2Cc2cc(-c3ccc(Cl)s3)on2)CC1` it was 52 nM; in that of `CC(C)N1CCC(NC(=O)c2cn(CC(=O)Nc3ccc(Cl)cc3)cn2)CC1`, 20500 nM.
For the compound `CC(C)N1CCC(NC(=O)c2cccn2CC(=O)Nc2ccc(Cl)cc2)CC1`, the inhibition constant Ki came to 51 nM.
